Values of other authors as cited in US20110048980A1, “Fatty Acid Oxidation Inhibitors Treating Hyperglycemia and Related Disorders” (Symcopeia Company, priority 2007, published 2011).
One block for each compound: values may come before it.

What was measured:
[1] = in vivo
[2] = pioglitazone added to other glucose lowering drugs, equivalent glucose-lowering

SMILES: COc1ccccc1OCC(O)CN1CCN(CC(=O)Nc2c(C)cccc2C)CC1 (stereo not shown) [Ranolazine, ranolazine]
QT interval effect [1]: causes QT interval prolongation

increase in risk of congestive heart failure (CHF) [2]: 2-3 fold
SMILES: CCc1ccc(CCOc2ccc(CC3SC(=O)NC3=O)cc2)nc1 (stereo not shown) [pioglitazone]

CHD events, relative risk (IGT patients, not statistically reduced, trend): 1.37
SMILES: CN(CCOc1ccc(CC2SC(=O)NC2=O)cc1)c1ccccn1 (stereo not shown) [rosiglitazone]
increase in incidence of CHF (pre-diabetic population): 7 fold
